Each molecule was assayed against T1, human PAD4 (Homo sapiens, UniProt Q9UM07) (assay: In vitro PAD4 BAEE biochemical assay). Details: BAEE substrate 3 mM, 5 nM PAD4, 2 mM calcium chloride; geometric mean of multiple experiments.
T1 construct: human PAD4 (NM_012387), A2-P663, was PCR amplified; His-SUMO (N, cleaved yes); made in house; host or cells: E. coli BL21(DE3)
T1 sequence (Q9UM07 2-663): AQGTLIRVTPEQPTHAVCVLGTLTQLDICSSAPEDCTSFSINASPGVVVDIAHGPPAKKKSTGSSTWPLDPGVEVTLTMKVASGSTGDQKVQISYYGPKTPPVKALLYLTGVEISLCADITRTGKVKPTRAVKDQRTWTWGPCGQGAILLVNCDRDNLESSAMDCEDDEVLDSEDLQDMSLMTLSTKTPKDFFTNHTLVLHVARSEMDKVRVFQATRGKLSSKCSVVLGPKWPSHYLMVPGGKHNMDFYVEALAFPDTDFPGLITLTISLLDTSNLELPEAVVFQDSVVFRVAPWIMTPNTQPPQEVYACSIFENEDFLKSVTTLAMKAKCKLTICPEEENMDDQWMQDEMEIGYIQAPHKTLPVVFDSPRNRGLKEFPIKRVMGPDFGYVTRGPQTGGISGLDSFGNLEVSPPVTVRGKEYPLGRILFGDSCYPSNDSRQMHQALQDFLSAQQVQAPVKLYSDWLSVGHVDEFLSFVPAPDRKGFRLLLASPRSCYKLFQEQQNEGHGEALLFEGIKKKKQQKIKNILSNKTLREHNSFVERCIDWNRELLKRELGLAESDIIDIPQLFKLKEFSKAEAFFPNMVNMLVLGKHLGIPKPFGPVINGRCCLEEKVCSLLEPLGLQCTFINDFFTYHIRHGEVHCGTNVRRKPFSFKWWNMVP
Summary of the method: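 Fluorescence read-out (ex 405/em 535 nm) of isoindole formed from ammonia, o-phthalaldehyde and DTT after EDTA stop. Reaction: 5 nM PAD4, 2 mM CaCl2, 3 mM BAEE, 2 h, 25 °C, after 30 min enzyme–compound preincubation. Normalised to BB-Cl-Amidine (50 µM) and DMSO controls.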
With `COc1cc(C(=O)N2CCC[C@@H](N)C2)cc2nc(-c3cc4ccc5nc4n3C[C@H]3C[C@H]3CCCCC(=O)N[C@@H]5C)n(C)c12` [Example 118, (3~{S},5~{R},12~{R})-18-[5-[(3~{R})-3-aminopiperidine-1-carbonyl]-7-methoxy-1-methyl-benzimidazol-2-yl]-12-methyl-1,11,20-triazatetracyclo[11.5.2.0^{3,5}.0^{16,19}] icosa-13(20),14,16(19),17-tetraen-10-one] the IC50 was 41 nM. Work on `COc1cc(C(=O)N2CCC[C@@H](N)C2)cc2nc(-c3cc4ccc5nc4n3C[C@H]3C[C@H]3CCCC(C)(C)C(=O)N[C@@H]5C)n(C)c12` [Example 119, (3~{S},5~{R},12~{R})-18-[5-[(3~{R})-3-aminopiperidine-1-carbonyl]-7-methoxy-1-methyl-benzimidazol-2-yl]-9,9,12-trimethyl-1,11,20-triazatetracyclo[11.5.2.0^{3,5}.0^{16,19}] icosa-13(20),14,16(19),17-tetraen-10-one] yielded an IC50 of 60 nM. In the case of `COc1cc(C(=O)N2[C@H]3CC[C@@H]2[C@H](N)C3)cc2nc(-c3cc4ccc5nc4n3C/C=C\CCCCCC(=O)N[C@@H]5C)c(C)n12` [Example 120, (12˜{R})-18-[7-[(1˜{R},2˜{R},4˜{S})-2-amino-7-azabicyclo[2.2.1]heptane-7-carbonyl]-5-methoxy-3-methyl-imidazo[1,2-a]pyridin-2-yl]-12-methyl-1,11,20-triazatricyclo[11.5.2.0^{16,19}]icosa-3,13(20),14,16(19),17-pentaen-10-one], the IC50 is reported as 22 nM. Molecule `COc1cc(C(=O)N2[C@H]3CC[C@@H]2[C@H](N)C3)cc2nc(-c3cc4ccc5nc4n3CCCCCCC(C)(C)C(=O)N[C@@H]5C)c(C)n12` [Example 121, (11~{R})-17-[7-[(1~{R},2~{R},4~{S})-2-amino-7-azabicyclo[2.2.1]heptane-7-carbonyl]-5-methoxy-3-methyl-imidazo[1,2-a]pyridin-2-yl]-8,8,11-trimethyl-1,10,19-triazatricyclo[10.5.2.0^{15,18}]nonadeca-12(19),13,15(18),16-tetraen-9-one] has an IC50 of 46 nM. `COc1cc(C(=O)N2[C@H]3CC[C@@H]2[C@H](N)C3)cc2nc(-c3cc4ccc5nc4n3CCCCCC[C@@H](C)C(=O)N[C@@H]5C)c(C)n12` [Example 122, (8~{R},11~{R})-17-[7-[(1~{R},2~{R},4~{S})-2-amino-7-azabicyclo[2.2.1]heptane-7-carbonyl]-5-methoxy-3-methyl-imidazo[1,2-a]pyridin-2-yl]-8,11-dimethyl-1,10,19-triazatricyclo[10.5.2.0^{15,18}]nonadeca-12(19),13,15(18),16-tetraen-9-one] gave an IC50 of 16 nM. In the case of `COc1cc(C(=O)N2[C@H]3CC[C@@H]2[C@H](N)C3)cc2nc(-c3cc4ccc5nc4n3C/C=C\CCCCC(=O)N[C@@H]5C)c(C)n12` [Example 123, (3~{2},11~{R})-17-[7-[(1~{R},2~{R},4~{S})-2-amino-7-azabicyclo[2.2.1]heptane-7-carbonyl]-5-methoxy-3-methyl-imidazo[1,2-a]pyridin-2-yl]-11-methyl-1,10,19-triazatricyclo[10.5.2.0^{15,18}]nonadeca-3,12(19),13,15(18),16-pentaen-9-one], the IC50 is reported as 12 nM. `COc1cc(C(=O)N2[C@H]3CC[C@@H]2[C@H](N)C3)cc2nc(-c3cc4ccc5nc4n3CCCCCC[C@H](C)C(=O)N[C@@H]5C)c(C)n12` [Example 124, (8~{S},11~{R})-17-[7-[(1~{R},2~{R},4~{S})-2-amino-7-azabicyclo[2.2.1]heptane-7-carbonyl]-5-methoxy-3-methyl-imidazo[1,2-a]pyridin-2-yl]-8,11-dimethyl-1,10,19-triazatricyclo[10.5.2.0^{15,18}]nonadeca-12(19),13,15(18),16-tetraen-9-one] was tested, and the IC50 was 12 nM. For `COc1cc(C(=O)N2[C@H]3CC[C@@H]2[C@H](N)C3)cc2nc(-c3cc4ccc5nc4n3CCCCCCCC(=O)N3CCC[C@H]53)n(C)c12` [Example 125, (2˜{R})-16-[5-[(1˜{R},2˜{R},4˜{S})-2-amino-7-azabicyclo[2.2.1]heptane-7-carbonyl)-7-methoxy-1-methyl-benzimidazol-2-yl]-6,15,21-triazatetracyclo[13.5.2.0^{2,6}.0^{18,22}]docosa-1(21),16,18(22),19-tetraen-7-one], the IC50 was 21 nM. `COc1cc(C(=O)N2[C@H]3CC[C@@H]2[C@H](N)C3)cc2nc(-c3cc4ccc5nc4n3CCCCCC(C)(C)C(=O)N[C@@H]5C)c(C)n12` [Example 126, (10~{R})-16-[7-[(1~{R},2~{R},4~{S})-2-amino-7-azabicyclo[2.2.1]heptane-7-carbonyl]-5-methoxy-3-methyl-imidazo[1,2-a]pyridin-2-yl]-7,7,10-trimethyl-1,9,18-triazatricyclo[9.5.2.0^{14,17}]octadeca-11(18),12,14(17),15-tetraen-8-one] gave an IC50 of 25 nM. `COc1cc(C(=O)N2[C@H]3CC[C@@H]2[C@H](N)C3)cc2nc(-c3cc4ccc5nc4n3CCCCCCCCC(=O)N5C)c(C)n12` [Example 127, 17-[7-[(1˜{R},2˜{R},4˜{S})-2-amino-7-azabicyclo[2.2.1]heptane-7-carbonyl]-5-methoxy-3-methyl-imidazo[1,2-a]pyridin-2-yl]-11-methyl-1,11,19-triazatricyclo[10.5.2.0^{15,18}]nonadeca-12(19),13,15(18),16-tetraen-10-one] was tested, and the IC50 was 31 nM. In the case of `COc1cc(C(=O)N2[C@H]3CC[C@@H]2[C@H](N)C3)cc2nc(-c3cc4ccc5nc4n3CCCCCC(=O)N3CCC[C@H]53)n(C)c12` [Example 128, (2~{R})-14-[5-[(1~{R},2~{R},4~{S})-2-amino-7-azabicyclo[2.2.1]heptane-7-carbonyl]-7-methoxy-1-methyl-benzimidazol-2-yl]-6,13,19-triazatetracyclo[11.5.2.0^{2,6}.0^{16,20}] icosa-1(19),14,16(20),17-tetraen-7-one], the IC50 is reported as 13 nM. `COc1cc(C(=O)N2[C@H]3CC[C@@H]2[C@H](N)C3)cc2nc(-c3cc4ccc5cc4n3CCCCCCCC(=O)N3CCC[C@H]53)n(C)c12` [Example 129, (2~{R})-16-[5-[(1~{R},2~{R},4~{S})-2-amino-7-azabicyclo[2.2.1]heptane-7-carbonyl]-7-methoxy-1-methyl-benzimidazol-2-yl]-6,15-diazatetracyclo[13.5.2.0^{2,6}.0^{18,22}] docosa-1(21),16,18(22),19-tetraen-7-one] was tested, and the IC50 was 13 nM. `COc1cc(C(=O)N2[C@H]3CC[C@@H]2[C@H](N)C3)cc2nc(-c3cc4ccc5nc4n3CCCCCCCCC(=O)N3CCC[C@H]53)n(C)c12` [Example 130, (2~{R})-17-[5-[(1~{R},2~{R},4~{S})-2-amino-7-azabicyclo[2.2.1]heptane-7-carbonyl]-7-methoxy-1-methyl-benzimidazol-2-yl]-6,16,22-triazatetracyclo[14.5.2.0^{2,6}.0^{19,23}] tricosa-1(22),17,19(23),20-tetraen-7-one] was tested, and the IC50 was 21 nM. Work on `COc1cc(C(=O)N2[C@H]3CC[C@@H]2[C@H](N)C3)cc2nc(-c3cc4ccc5nc4n3CCCCCCC(=O)N3CCC[C@H]53)n(C)c12` [Example 131, (2~{R})-15-[5-[(1~{R},2~{R},4~{S})-2-amino-7-azabicyclo[2.2.1]heptane-7-carbonyl]-7-methoxy-1-methyl-benzimidazol-2-yl]-6,14,20-triazatetracyclo[12.5.2.0^{2,6}.0^{17,21}] henicosa-1(20),15,17(21),18-tetraen-7-one] yielded an IC50 of 15 nM. `COc1cc(C(=O)N2[C@H]3CC[C@@H]2[C@H](N)C3)cc2nc(-c3cc4ccc5nc4n3CCCCOCCC(=O)N3CCC[C@H]53)n(C)c12` [Example 132, (2~{R})-16-[5-[(1~{R},2~{R),4~{S})-2-amino-7-azabicyclo[2.2.1]heptane-7-carbonyl]-7-methoxy-1-methyl-benzimidazol-2-yl]-10-oxa-6,15,21-triazatetracyclo[13.5.2.0^{2,6}.0^{18,22}] docosa-1(21),16,18(22),19-tetraen-7-one] was tested, and the IC50 was 28 nM. Molecule `COc1cc(C(=O)N2[C@H]3CC[C@@H]2[C@H](N)C3)cc2nc(-c3cc4ccc5nc4n3CCCCOCC(=O)N3CCC[C@H]53)n(C)c12` [Example 133, (2~{R})-15-[5-[(1~{R},2~{R},4~{S})-2-amino-7-azabicyclo[2.2.1]heptane-7-carbonyl]-7-methoxy-1-methyl-benzimidazol-2-yl]-9-oxa-6,14,20-triazatetracyclo[12.5.2.0^{2,6}.0^{17,21}] henicosa-1(20),15,17(21),18-tetraen-7-one] has an IC50 of 47 nM. With `COc1cc(C(=O)N2[C@H]3CC[C@@H]2[C@H](N)C3)cc2nc(-c3cc4ccc5nc4n3CCCCCCCC(=O)N3CC4(CC4)CC53)n(C)c12` (stereo partly drawn) [Example 134, 16-[5-[(1˜{R},2˜{R},4˜{S})-2-amino-7-azabicyclo[2.2.1]heptane-7-carbonyl]-7-methoxy-1-methyl-benzimidazol-2-yl]spiro[6,15,21-triazatetracyclo[13.5.2.0^{2,6}.0^{18,22}]docosa-1(21),16,18(22),19-tetraene-4,1′-cyclopropane]-7-one] the IC50 was 125 nM. `COc1cc(C(=O)N2[C@H]3CC[C@@H]2[C@H](N)C3)cc2nc(-c3cc4ccc5nc4n3CCCCCCCC(=O)N3C[C@@H]4C[C@@H]4[C@H]53)n(C)c12` [Example 135, (2~{R),3~{S},5~{R})-17-[5-[(1~{R},2~{R},4~{S})-2-amino-7-azabicyclo[2.2.1]heptane-7-carbonyl]-7-methoxy-1-methyl-benzimidazol-2-yl]-7,16,22-triazapentacyclo [14.5.2.0^{2,7}.0^{3,5}.0^{19,23}] tricosa-1(22),17,19(23),20-tetraen-8-one] gave an IC50 of 37 nM.

Source: US11976083B2, “Inhibitors of peptidylarginine deiminases” (Gilead Sciences, Inc., priority 2020, dated 2024)
